From the NIST ThermoML archive (doi:10.1016/j.jct.2016.03.029)

Tests used:
[1] = refractive index (Na D-line) (dimensionless); xn = mol fraction of the nth substance listed; details: 100 kPa, Liquid, Standard Abbe refractometry
[2] = xn = mol fraction of the nth substance listed; details: 100 kPa, Liquid; for speed of sound: Frequency=3 MHz, Sing-around technique in a fixed-path interferometer; for mass density: Vibrating tube method

CCCC[n+]1ccn(C)c1.O=S(=O)([N-]S(=O)(=O)C(F)(F)F)C(F)(F)F + CN1CCCC1=O
Details	mass density, [2] [kg/m3]	refractive index, [1]	speed of sound, [2] [m/s]
298.15 K, x1 = 0.1051	1135.14	1.45767	1448.1
298.15 K, x1 = 0.2088	1209.84	1.45014	1385.2
298.15 K, x1 = 0.2926	1255.56	1.44539	1347.3
298.15 K, x1 = 0.3807	1293.95	1.44129	1317
298.15 K, x1 = 0.5019	1335.52	1.4368	1287.5
298.15 K, x1 = 0.5925	1360.41	1.43414	1271
298.15 K, x1 = 0.6982	1384.58	1.43169	1255.8
298.15 K, x1 = 0.7862	1401.58	1.42999	1245.6
298.15 K, x1 = 0.8895	1418.59	1.4283	1236.2
298.15 K, x1 = 1	1433.72	1.42671	1227.9
303.15 K, x1 = 0.1051	1130.6	1.45571	1430.8
303.15 K, x1 = 0.2088	1205.24	1.4483	1369.4
303.15 K, x1 = 0.2926	1250.89	1.44359	1332.5
303.15 K, x1 = 0.3807	1289.25	1.43954	1303.1
303.15 K, x1 = 0.5019	1330.79	1.4351	1274.3
303.15 K, x1 = 0.5925	1355.69	1.43244	1258.2
303.15 K, x1 = 0.6982	1379.86	1.43006	1243.5
303.15 K, x1 = 0.7862	1396.85	1.42842	1233.5
303.15 K, x1 = 0.8895	1413.85	1.42678	1224.4
303.15 K, x1 = 1	1428.92	1.42522	1216.8
308.15 K, x1 = 0.1051	1126.04	1.45375	1413.4
308.15 K, x1 = 0.2088	1200.63	1.44645	1353.5
308.15 K, x1 = 0.2926	1246.22	1.44178	1317.8
308.15 K, x1 = 0.3807	1284.55	1.43777	1289.2
308.15 K, x1 = 0.5019	1326.08	1.43337	1261.2
308.15 K, x1 = 0.5925	1350.96	1.43074	1245.5
308.15 K, x1 = 0.6982	1375.14	1.42842	1231.1
308.15 K, x1 = 0.7862	1392.14	1.42683	1221.5
308.15 K, x1 = 0.8895	1409.13	1.42524	1212.7
308.15 K, x1 = 1	1424.13	1.42373	1205.8
313.15 K, x1 = 0.1051	1121.51	1.45177	1396.4
313.15 K, x1 = 0.2088	1196.02	1.44455	1337.9
313.15 K, x1 = 0.2926	1241.59	1.43994	1303.1
313.15 K, x1 = 0.3807	1279.89	1.43596	1275.6
313.15 K, x1 = 0.5019	1321.38	1.43161	1248.3
313.15 K, x1 = 0.5925	1346.26	1.42904	1232.9
313.15 K, x1 = 0.6982	1370.44	1.42676	1218.9
313.15 K, x1 = 0.7862	1387.44	1.42522	1209.5
313.15 K, x1 = 0.8895	1404.42	1.42368	1201.2
313.15 K, x1 = 1	1419.36	1.42225	1195
318.15 K, x1 = 0.1051	1116.95	1.44978	1379.1
318.15 K, x1 = 0.2088	1191.41	1.44265	1322.3
318.15 K, x1 = 0.2926	1236.95	1.43809	1288.7
318.15 K, x1 = 0.3807	1275.22	1.43414	1262.1
318.15 K, x1 = 0.5019	1316.7	1.42983	1235.4
318.15 K, x1 = 0.5925	1341.57	1.42733	1220.3
318.15 K, x1 = 0.6982	1365.75	1.42509	1206.6
318.15 K, x1 = 0.7862	1382.75	1.42359	1197.5
318.15 K, x1 = 0.8895	1399.75	1.4221	1189.5
318.15 K, x1 = 1	1414.61	1.42076	1184.2
323.15 K, x1 = 0.1051	1112.42	1.44778	1361.8
323.15 K, x1 = 0.2088	1186.82	1.4407	1306.6
323.15 K, x1 = 0.2926	1232.32	1.43621	1274.3
323.15 K, x1 = 0.3807	1270.56	1.43228	1248.4
323.15 K, x1 = 0.5019	1312.04	1.42802	1222.5
323.15 K, x1 = 0.5925	1336.92	1.42562	1207.8
323.15 K, x1 = 0.6982	1361.1	1.42341	1194.4
323.15 K, x1 = 0.7862	1378.1	1.42193	1185.6
323.15 K, x1 = 0.8895	1395.1	1.42051	1177.9
323.15 K, x1 = 1	1409.88	1.41923	1173.6
